Usually inhibition stands for the relative decrease from the control value, in per cent.

In the assay the target is T1, leukotriene B4 specific receptor on the membrane of human neutrophils (Homo sapiens, UniProt Q15722).
T1 construct: incubating neutrophils (1×10^7 cells) with 0.1-0.2 nM ^3 H-LTB4; endogenous in cells; host or cells: human peripheral blood neutrophils (buffy coats of two blood donors)
The assay can be described thus: Inhibition of Binding of ^3 H-LTB4 to Peripheral Human Neutrophils. The settings on record: for inhibition at 1 µM: drug concentration 10^-6 M; for inhibition at 10 µM: read-out: LTB4 Binding Inhibition. As to the method:
The effectiveness of compounds to inhibit the binding of leukotriene B4 to a specific receptor on the membrane of human neutrophils was measured by using an adaptation of a radio-ligand binding assay developed by Goldman and Goetzl, J. Immunol., 129, 1600 (1982). Other investigators have developed similar assays (see, e.g., Kreisle, et al., J. Exp. Med., 157, 628 (1983) and Lin, et al., Prostaglandins, 28, 837 (1984)).
Cells used in the assay were isolated by standard techniques of centrifugation on Ficol-Hypaque, dextran 70 sedimentation and hypotonic lysis. The following procedure was used. Freshly-prepared buffy coat layers from two individuals were obtained from a local blood donor center. The cells were mixed and diluted to 484 ml. with phosphate buffered saline containing heparin (10 units/ml) and heat-inactivated calf serum (5%). This was divided into 20 ml. aliquots and the aliquots layered on top of Ficoll-Paque (12 ml.). The material was then centrifuged at 500 g. for 40 minutes at room temperature. The resulting upper layer of platelets and mononuclear cells was discarded. The lower layer containing erythrocytes and neutrophils was retained. Buffer was added (1 ml. per 4 ml. of lower layer) and the suspension mixed. For each milliliter of this mixture, 0.33 ml. of 6% Macrodex was added. After stirring, the cels were allowed to sediment for 1 hour at 37° C. The resulting erythrocyte pellet was discarded and the neutrophil enriched supernatant fluid centrifuged at 500 g. for 10 minutes at 4° C. Erythrocytes still present in this cell pellet were lysed by incubating the cells with 5-8 ml. ice-cold distilled water for 30-45 seconds. Subsequently, the volume was made up to 50 ml. by addition of ice-cold buffer and the cells resuspended. The suspension was then centrifuged at 300 g. for 10 minutes at 4° C. The cells were finally resuspended at a cell density of 2×10^7 cells/ml in the assay buffer. This buffer Consisted of Hanks' balanced salt solution and 0.1% ovalbumin (pH 7.3).
The radio-ligand binding assay was conducted by incubating neutrophils (1×10^7 cells) with 0.1-0.2 nM ^3 H-LTB4 (sp. act. 150-220 Curies/mmol) and test compound (1×10^-5 M and 1×10^-6 M) for 10 minutes at 4° C. The amount of bound ^3 H-LTB4 was then measured and compared with the amount bound in the absence of test compound. The assay was carried out in microcentrifuge tubes by adding first 10 μl test compound dissolved in DMSO, followed by adding 20 μl ^3 H-LTB4 diluted in assay buffer, and finally adding 500 μl of the cell suspension pension. At the end of the 10 minutes incubation, 300 μl of a mixture of dibutyl and dinonyl phthalate (7:2) were added and the tubes centrifuged for 2 minutes in a microcentrifuge. The radioactivity bound to the cell pellet was measured by scintillation spectroscopy. Appropriate corrections for nonspecific bonding of ^3 H-LTB4 were made.

Where [1] appears, read: drug concentration 10^-5 M, 4° C., 10 minutes.

Molecules are shown by their SMILES. Like-named read-outs stand apart in the source and are kept apart here.

T1 sequence (Q15722 whole entry): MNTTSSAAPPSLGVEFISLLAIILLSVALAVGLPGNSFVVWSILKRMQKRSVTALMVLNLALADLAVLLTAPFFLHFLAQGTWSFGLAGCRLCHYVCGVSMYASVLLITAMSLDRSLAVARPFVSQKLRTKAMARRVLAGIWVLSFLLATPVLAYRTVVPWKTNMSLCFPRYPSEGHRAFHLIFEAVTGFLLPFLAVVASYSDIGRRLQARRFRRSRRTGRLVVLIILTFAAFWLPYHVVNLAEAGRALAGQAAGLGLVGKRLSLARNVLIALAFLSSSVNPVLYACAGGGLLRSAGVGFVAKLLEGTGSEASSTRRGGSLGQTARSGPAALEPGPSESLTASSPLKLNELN

As to `C=CCc1cc(C(C)=O)c(O)cc1OCCCCC#N` [Example 139, 5-(4-Acetyl-5-hydroxy-2-allylphenoxy)pentanenitrile], the inhibition at 10 µM is 92%. In addition, the inhibition at 1 µM (4° C., 10 minutes) worked out at 53%.

For the molecule `C=CCc1cc(C(C)=O)c(O)cc1OCCCCCCC#N` [Example 24, 7-(4-Acetyl-5-hydroxy-2-allylphenoxy)-], the inhibition at 10 µM under setting [1] worked out at 94%. In addition, where the note is “4° C., 10 minutes”, the inhibition at 1 µM was 59%.

On to `C=CCc1cc(C(C)=O)c(O)cc1OCCCCc1nnn(C)n1` [Example 120, 2-Hydroxy-4-[4-(2-methyl-2H-tetrazol5-yl)butoxy]-5-allylacetophenone], for which, under setting [1], the inhibition at 10 µM turned out to be 97%. Besides, the inhibition at 1 µM (4° C., 10 minutes) stood at 55%.

As for `C=CCc1cc(C(=O)CC)c(O)cc1OCCCCC#N` [Example 105, 5-[5-Hydroxy-4-(1-oxopropyl)-2-allylphenoxy]pentanenitrile], the inhibition at 10 µM under setting [1] is 76%. Under “4° C., 10 minutes”, the inhibition at 1 µM worked out at 35%.

In the case of `C=CCc1cc(C(C)=O)c(O)cc1OCCCCCC#N` [Example 21, 6-(4-Acetyl-5-hydroxy-2-allylphenoxy)-hexanenitrile], the inhibition at 10 µM under setting [1] stood at 81%. The inhibition at 1 µM (4° C., 10 minutes) amounted to 32%.

As for `C=CCc1cc(C(C)=O)c(O)cc1OCCCCCC[S+](C)[O-]` (stereo not shown) [Example 79, 2-Hydroxy-4-[6-(methylsulfinyl)hexyloxy]-5-allylacetophenone], the inhibition at 10 µM under setting [1] was found to be 96%. Moreover, the inhibition at 1 µM (4° C., 10 minutes) turned out to be 51%.

Turning to `COCc1cc(C(C)=O)c(O)cc1OCCCCCCC#N` [Example 129, 7-[4-Acetyl-5-hydroxy-2-(methoxymethyl)phenoxy]-hdptanentrile], under setting [1], the inhibition at 10 µM is 47%. Besides, under “4° C., 10 minutes”, the inhibition at 1 µM amounted to 7%.

On to `CCc1cc(C(C)=O)c(O)cc1OCCCCCCC(=O)O` [Example 85, 7-(4-Acetyl-2-ethyl-5-hydroxyphenoxy)heptanoio acid], for which the inhibition at 10 µM under setting [1] was 86%. The inhibition at 1 µM (4° C., 10 minutes) is 37%.

With `CCCCCc1cc(C(C)=O)c(O)cc1OCCCCC#N` [Example 31, 5-(4-Acetyl-5-hydroxy-2-pentylphenoxy)-pentanenitrile], the inhibition at 10 µM under setting [1] came out at 30%. In addition, under “4° C., 10 minutes”, the inhibition at 1 µM was 14%.

As for `C=CCCCCOc1cc(O)c(C(C)=O)cc1CC=C` [Example 46, 4-(5-Hexenyloxy)-2-hydroxy-5-allylacetophenone], the inhibition at 10 µM under setting [1] came to 72%. Moreover, the inhibition at 1 µM (4° C., 10 minutes) was found to be 26%.

On to `C=CCCOc1cc(O)c(C(C)=O)cc1CC=C` [Example 45, 4-(3-Butenyloxy)-2-hydroxy-5-allylacetophenone], for which, under setting [1], the inhibition at 10 µM came to 51%. Also, where the note is “4° C., 10 minutes”, the inhibition at 1 µM was 15%.

On to `CCOC(=O)Cn1nnc(CCCCOc2cc(O)c(C(C)=O)cc2CC)n1` [Example 141, 5-[4-(4-Acetyl-2-ethyl-5-hydroxyphenoxy)-butyl]-2H-tetrazole-2-acetic acid, ethyl ester], for which the inhibition at 10 µM under setting [1] amounted to 90%. Besides, the inhibition at 1 µM (4° C., 10 minutes) is 57%.

On to `C=CCc1cc(C(C)=O)c(O)cc1OCCCCCCCCC#N` [Example 23, 9-(4-Aoetyl-5-hydroxy-2-allylphenoxy)-nonanenitrile], for which the inhibition at 10 µM under setting [1] is 85%. For the same molecule, the inhibition at 1 µM (4° C., 10 minutes) stood at 50%.

In the case of `CCc1cc(C(C)=NO)c(O)cc1OCCCCCC(C)(C)C(=O)O` [Example 152, 7-{4-[-(Hydroxyimino)ethyl]-2-ethyl-5-hydroxyphenoxy}-2,2-dimethylheptanoicacid], the inhibition at 1 µM (4° C., 10 minutes) was found to be 41%. For the setting “drug concentration 10^-7 M, 4° C., 10 minutes”, the inhibition at 0.1 µM worked out at 3%.

As to `CCc1cc(C(C)=O)c(O)cc1OCCCCCCC(=O)NC` [Example 99, 7-(-Acetyl-2-ethyl-5-hydroxyphenoxy)N-methylheptanamide], the inhibition at 10 µM came out at 97%. Also, where the note is “4° C., 10 minutes”, the inhibition at 1 µM stood at 54%.

In the case of `C=CCc1cc(C(C)=O)c(O)cc1OCCCCCC` [Example 39, 4-(Hexyloxy)-2-hydroxy-5-allylacetophenone], the inhibition at 10 µM under setting [1] turned out to be 50%. For the same molecule, the inhibition at 1 µM (4° C., 10 minutes) was 9%.

`C=CCc1cc(C(C)=O)c(O)cc1OCCCCCC(C)=O` [Example 102]: the inhibition at 10 µM under setting [1] is 97%. Also, under “4° C., 10 minutes”, the inhibition at 1 µM was 57%.

As to `CCc1cc(C(C)=O)c(O)cc1OCCCC(C)(C)C(=O)O` [Example 134, 5-(4-Acetyl-2ethyl-5-hydroxyphenoxy)-2,2-dimethylpentanoic acid], the inhibition at 10 µM under setting [1] turned out to be 93%. Also, the inhibition at 1 µM (4° C., 10 minutes) was determined as 45%.

For `C=CCc1cc(C(C)=O)c(O)cc1OCCCCc1nnnn1C` [Example 119, 2-Hydroxy-4-[4-(1-methyl-lH-tetrazol-5-yl)-butoxy]-5-allylacetophenone], the inhibition at 10 µM under setting [1] turned out to be 57%. Besides, the inhibition at 1 µM (4° C., 10 minutes) came out at 13%.

Take `CCc1cc(C(C)=O)c(O)cc1OCCCCCCCC(C)(C)C(=O)N(C)O` [Example 150, N-Methyl-N-hydroxy-9-(4-acetyl-2-ethyl-5-hydroxyphenoxy)-2,2-dimethylnonanamide]: the inhibition at 10 µM under setting [1] was 90%. The inhibition at 1 µM (4° C., 10 minutes) is 59%.

In the case of `CCc1cc(C(C)=O)c(O)cc1OCCCC(C)(C)C(N)=O` [Example 135, 5-(4-Acetyl-2-ethyl-5-hydroxyphenoxy)-2,2-dimethylpentamide], under setting [1], the inhibition at 10 µM worked out at 95%. Besides, the inhibition at 1 µM (4° C., 10 minutes) turned out to be 55%.

For the molecule `CC(=O)c1cc(C(C)=O)c(OCCCCC#N)cc1O` [Example 16, 5-(2,4-Diacetyl-5-hydroxy-phenoxy)pentanenitrile], under setting [1], the inhibition at 10 µM amounted to 8%. For the same molecule, the inhibition at 1 µM (4° C., 10 minutes) is -7%.

For `C=CCc1cc(C(C)=O)c(O)cc1OCc1ccc(CC#N)cc1` [Example 71, 4-[(4-Acetyl-5-hydroxy-2-allylphenoxy)-methyl]benzeneacetonitrile], under setting [1], the inhibition at 10 µM was found to be 30%. For the setting “4° C., 10 minutes”, the inhibition at 1 µM is 17%.

With `C=CCc1cc(C(C)=O)c(O)cc1OCCCCCCCCCCC#N` [Example 70, 11-(4-Acetal-5-hydroxy-2-allylphenoxy)-undecanenitrile], the inhibition at 10 µM under setting [1] turned out to be 50%. Also, the inhibition at 1 µM (4° C., 10 minutes) was 14%.

Consider `C=CCc1cc(C(C)=O)c(O)cc1OC` [Example 42, 2-Hydroxy-4-methoxy-5-allylacetophenone], for which, under setting [1], the inhibition at 10 µM was 6%. Where the note is “4° C., 10 minutes”, the inhibition at 1 µM was determined as 12%.

As for `C=CCc1cc(C(C)=O)c(O)cc1OCCCCCC(=O)O` [Example 86, 6-(4-Acetyl-2-allyl-5-hydroxyphenoxy)hexanoic acid], under setting [1], the inhibition at 10 µM is 73%. The inhibition at 1 µM (4° C., 10 minutes) came out at 23%.

As for `CCc1cc(C(=O)CCCC(=O)O)c(O)cc1OCCCCC#N` [Example 88, 5-[(4-Cyanobutoxy)-5-ethyl-2-hydroxybenzene]-5-oxopentanoic acid], the inhibition at 10 µM under setting [1] turned out to be 19%. Further, the inhibition at 1 µM (4° C., 10 minutes) was -1%.

Regarding `CSCc1cc(C(C)=O)c(O)cc1OCCCCCCC#N` [Example 128, 7-[4-Acetyl-5-hydroxy-2-(methylthiomethyl)-phenoxy]heptanenitrile], under setting [1], the inhibition at 10 µM amounted to 97%. The inhibition at 1 µM (4° C., 10 minutes) was 64%.

For the molecule `C=CCc1cc(C(C)=O)c(O)cc1OCCCCCCC` [Example 37, 4-(Heptyloxy)-2-hydroxy-5-allylacetophenone], the inhibition at 10 µM under setting [1] was 31%. The inhibition at 1 µM (4° C., 10 minutes) turned out to be 8%.

As to `CCc1cc(C(C)=O)c(O)cc1OCCCCCCC(=O)Nc1nnn[nH]1` [Example 145, 7-(4-Acetyl-2-ethyl-5-hydroxyphenoxy)-N-1H-tetrazol-5-ylheptanamide], the inhibition at 10 µM under setting [1] is 101%. Moreover, the inhibition at 1 µM (4° C., 10 minutes) was found to be 85%.

As for `CCOC(=O)Cn1nnnc1CCCCOc1cc(O)c(C(C)=O)cc1CC` [Example 142, 5-[4-(4-acetyl-2-ethyl-5-hydroxyphenoxy)butyl]-1H-tetrazole-1-acetic acid, ethyl ester], the inhibition at 10 µM under setting [1] amounted to 34%. Moreover, the inhibition at 1 µM (4° C., 10 minutes) is 5%.

Take `C=CCc1cc(C(C)=O)c(O)cc1OCCCCCC(=O)N(C)C` [Example 97, 6-(4-Acetyl-5-hydroxy-2-allylphenoxy)-N,N-dimethylhexanamide]: the inhibition at 10 µM under setting [1] is 91%. The inhibition at 1 µM (4° C., 10 minutes) worked out at 53%.

The values above are taken from patent US5098613A, “Anti-inflammatory agents” (Eli Lilly and Company, priority 1990, dated 1992).
